Assay results taken from patent US20070116736A1, “Local vascular delivery of PI3 kinase inhibitors alone or in combination with sirolimus to prevent restinosis following vascular injury” (priority 2005, published 2007).

What was measured:
[1] = drug concentration in liquid formulations by liquid chromatography / HPLC assay; format: physicochemical
[2] = tested on: human coronary artery smooth muscle cells; conditions: synchronized cells, two percent fetal bovine serum; for effect of addition of the agent on the percent inhibition of rapamycin: topotecan zero to three hundred nanomolar, etoposide zero to eight hundred nanomolar, Panzem zero to 100 micromolar
[3] = tested on: human coronary artery smooth muscle cell; experiment: MTS cytotoxicity assay; format: cell-based; conditions: concentrations up to 30,000.00 nanomolar
Text: Typically, a control is utilized to determine baseline toxicity.

[4] = porcine drug elution PK study of dual drug eluting coating; format: in vivo; conditions: after eight (8) days of implantation, pig coronary arteries; single layer coating of FIG. 83
Text: Another critical parameter for the performance of the thrombus resistance of a device coated with cilostazol is the duration of the drug release from the coating. This is of particular significance in the two weeks after device implantation. In the porcine drug elution PK studies of the dual drug eluting coating, both cilostazol and sirolius were slowly released from the coating, resulting in a sustained drug release profile. The purpose of the porcine PK study is to assess the local pharmacokinetics of a drug eluting stent at a given implantation time. Normally three stents are implanted in three different coronary arteries in a pig for a given time point and then retrieved for total drug recovery analysis. The stents are retrieved at predetermined time points; namely, 1, 3 and 8 days. The stents are extracted and the total amount of drug remaining on the stents is determined by analysis utilizing HPLC (high performance liquid chromatography) for total drug amount. The difference between the original amount of drug on the stent and the amount of drug retrieved at a given time represents the amount of drug released in that period. The continuous release of drug into surrounding arterial tissue is what prevents the neointimal growth and restenosis in the coronary artery. A normal plot represents the percentage of total drug released (%, y-axis) vs. time of implantation (day, x-axis). […]

[5] = in vitro release of sirolimus and cilostazol from stent coating; format: physicochemical; conditions: single layer coating of FIG. 83
[6] = tested on: human smooth muscle cells; experiment: Cladribine Example, PDGF-stimulated cell proliferation (cell count), smooth muscle cells; format: cell-based; conditions: from IC50 values
Protocol: To assess the ability of cladribine to prevent cell proliferation, human smooth muscle or endothelial cells (Clonetics, Walkersville, Md.) were seeded at a density of 2000 cells/cm^2 (approximately 3600 cells/well) into each well of 12-well plates and cultured with 1.5 ml of growth medium containing five percent fetal calf serum (FCS). After twenty-four hours, the growth medium was changed and fresh medium containing 10 ng/ml platelet-derived growth factor AB (PDGF AB; LIFE Technologies), as well as various concentrations of cladribine (0.001-10,000 nM) were added with triplicate wells. Medium was replaced with fresh cladribine-containing medium after three days. On day six, cells were detached by trypsinization to yield a cell suspension, lightly centrifuged to pellet and then counted manually using a Neubauer hemocytometer system. Cell viability was assessed by trypan blue exclusion.

[7] = tested on: human coronary artery smooth muscle cells; experiment: anti-proliferative activity in non-synchronized cultured human coronary artery smooth muscle cells stimulated with two percent fetal bovine serum; format: cell-based; conditions: for effect of addition of the agent on the anti-proliferative activity of rapamycin: mycophenolic acid zero to one thousand nanomolar, cladribine zero to nine hundred nanomolar
Text: The multiple curves represent various concentrations of mycophenolic acid ranging from zero to one thousand nanomolar concentrations.
The multiple curves represent various concentrations of cladribine ranging from zero to nine hundred nanomolar concentrations.

cell viability = cell viability assay; format: cell-based
tumor cell lines = tumor cell lines (Woo et al. 2002); cited from earlier work
[8] = tested on: human coronary artery smooth muscle cell; experiment: in vitro cell culture study, coronary artery smooth muscle cell proliferation (trichostatin A); format: cell-based
Text: FIG. 51 is a graph of the inhibition of coronary artery smooth muscle cells by trichostatin A in a cell culture study.

For `CO[C@H]1C[C@@H]2CC[C@@H](C)[C@@](O)(O2)C(=O)C(=O)N2CCCC[C@H]2C(=O)O[C@H]([C@H](C)C[C@@H]2CC[C@@H](OC(=O)C(C)(CO)CO)[C@H](OC)C2)CC(=O)[C@H](C)/C=C(\C)[C@@H](O)[C@@H](OC)C(=O)[C@H](C)C[C@H](C)/C=C/C=C/C=C/1C` [CCI-779], the “concentration of CCI-779 in the final solution (HPLC assay)” value ([1]; Vitamin E TPGS, water, ethanol less than two percent) was 15000 µg/mL.
With `COc1cc2c(cc1O)CC[C@@H]1[C@@H]2CC[C@]2(C)[C@@H](O)CC[C@@H]12` [Panzem®, 2-methoxyestradiol] the “inhibition of human coronary artery smooth muscle cell proliferation in vitro” value [2] was “extremely effective inhibitor”, the “effect of addition of the agent on the percent inhibition of rapamycin” value (“effect … on the percent inhibition of rapamycin” below) [2] was “increases the percent of inhibition of rapamycin alone” and the “human coronary artery smooth muscle cell survival (MTS assay)” value [3] was “do not reduce human coronary artery smooth muscle cell survival”.
For `O=C1CCc2cc(OCCCCc3nnnn3C3CCCCC3)ccc2N1` [cilostazol, 6[4-(1-cyclohexyl-1H-tetrazol-5-yl)-butoxy]-3,4-dihydro-2-(1H)-quinolinone], the “drug remaining in the drug coating” value [4] was ~80% and the “in vitro release from coating” value [5] was ~35%.
For `Nc1nc(Cl)nc2c1ncn2[C@H]1C[C@H](O)[C@@H](CO)O1` [cladribine, 2-chlorodeoxyadenosine], the “potency as inhibitor of smooth muscle cells relative to endothelial cells” value [6] was “approximately twice”, the “inhibition of human coronary artery smooth muscle cell proliferation” value [7] was “completely inhibits” and the “effect of addition of the agent on the anti-proliferative activity of rapamycin” value [7] was “increases the percent inhibition of rapamycin alone”.
With `COc1cc([C@@H]2c3cc4c(cc3[C@@H](O[C@@H]3O[C@@H]5CO[C@@H](C)O[C@H]5[C@H](O)[C@H]3O)[C@H]3COC(=O)[C@H]23)OCO4)cc(OC)c1O` [etoposide] the “cytotoxicity in cell viability assay” value (cell viability; at concentrations up to ten micromolar) was “non-cytotoxic” and the “effect … on the percent inhibition of rapamycin” value [2] was “increases the percent inhibition of rapamycin alone”.
For `COc1c(C)c2c(c(O)c1C/C=C(\C)CCC(=O)O)C(=O)OC2` [mycophenolic acid], the “effect of addition of the agent on the anti-proliferative activity of rapamycin” value [7] was “potentiates the anti-proliferative activity of rapamycin”.
In the case of `CO[C@H]1C[C@@H]2CC[C@@H](C)[C@@](O)(O2)C(=O)C(=O)N2CCCC[C@H]2C(=O)O[C@H]([C@H](C)C[C@@H]2CC[C@@H](O)[C@H](OC)C2)CC(=O)[C@H](C)/C=C(\C)[C@@H](O)[C@@H](OC)C(=O)[C@H](C)C[C@H](C)/C=C/C=C/C=C/1C` [rapamycin], the “concentration in formulation relative to solubility of sirolimus in water” value ([1]; 4 mg/ml PEG 200 formulation) is reported as “four hundred to about one thousand” and the “drug remaining in the drug coating” value [4] is reported as ~80%.
With `CC[C@@]1(O)C(=O)OCc2c1cc1n(c2=O)Cc2cc3c(CN(C)C)c(O)ccc3nc2-1` [topotecan] the “cytotoxicity in cell viability assay” value (cell viability; at concentrations up to one micromolar) was “non-cytotoxic” and the “effect … on the percent inhibition of rapamycin” value [2] was “increases the percent inhibition of rapamycin alone”.
For `CC(/C=C/C(=O)NO)=C\[C@@H](C)C(=O)c1ccc(N(C)C)cc1` [trichostatin A], the “anti-proliferative IC50” value (tumor cell lines) is listed as “low nM range”, the IC50 ([8]; human coronary artery smooth muscle cell proliferation, read-out: anti-proliferative IC50) is listed as ~6 nM and the “inhibition of human coronary artery smooth muscle cell proliferation” value ([8]; in vitro cell culture) is listed as “completely inhibit”.
